Reference: the supplement of paper PMC10307832

What was measured:
Assay in all cases: relative viability (nuclei count vs DMSO), 5 days (fraction); higher = more cells survive
LU99A = system: LU99A
Summary of the method: (§1)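 Lung cancer cell lines were pin-tool dosed in 1536-well plates on the day after seeding, with either a lone drug or a fixed anchor-drug dose plus five library-drug doses (not always all listed) in √10 steps. Nuclei were counted on 4× images after 5 days. Relative viability is the ratio of treated-well to vehicle-well nuclei counts, with each value a median of duplicate plates.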

NCI-H1944 = system: NCI-H1944
Summary of the method: as §1

LCLC-103H = system: LCLC-103H
Summary of the method: as §1

NCI-H650 = system: NCI-H650
Summary of the method: as §1

NCI-H2023 = system: NCI-H2023
Summary of the method: as §1

NCI-H1793 = system: NCI-H1793
Summary of the method: as §1

NCI-H838 = system: NCI-H838
Summary of the method: as §1

SK-MES-1 = system: SK-MES-1
Summary of the method: as §1

EPLC-272H = system: EPLC-272H
Summary of the method: as §1

EMC-BAC-2 = system: EMC-BAC-2
Summary of the method: as §1

HCC-827 = system: HCC-827
Summary of the method: as §1

NCI-H1395 = system: NCI-H1395
Summary of the method: as §1

NCI-H1563 = system: NCI-H1563
Summary of the method: as §1

H3255 = system: H3255
Summary of the method: as §1

COR-L23 = system: COR-L23
Summary of the method: as §1

NCI-H520 = system: NCI-H520
Summary of the method: as §1

NCI-H1651 = system: NCI-H1651
Summary of the method: as §1

ChaGo-K-1 = system: ChaGo-K-1
Summary of the method: as §1

NCI-H2085 = system: NCI-H2085
Summary of the method: as §1

NCI-H2087 = system: NCI-H2087
Summary of the method: as §1

NCI-H2405 = system: NCI-H2405
Summary of the method: as §1

COc1cc2nccc(Oc3ccc(NC(=O)Nc4cc(C)on4)c(Cl)c3)c2cc1OC [Tivozanib] + Cc1nc(Nc2ncc(C(=O)Nc3c(C)cccc3Cl)s2)cc(N2CCN(CCO)CC2)n1 [Dasatinib] (partner 0.075 µM)
relative viability (LU99A; first compound 0.005 µM): 0.356
relative viability (LU99A; first compound 0.01581 µM): 0.599
relative viability (LU99A; first compound 0.05 µM): 0.656
relative viability (LU99A; first compound 0.1581 µM): 0.489
relative viability (LU99A; first compound 0.5 µM): 0.474
relative viability (NCI-H1944; first compound 0.005 µM): 0.236
relative viability (NCI-H1944; first compound 0.01581 µM): 0.246
relative viability (NCI-H1944; first compound 0.05 µM): 0.208
relative viability (NCI-H1944; first compound 0.1581 µM): 0.192
relative viability (NCI-H1944; first compound 0.5 µM): 0.208
relative viability (LCLC-103H; first compound 0.005 µM): 0.459
relative viability (LCLC-103H; first compound 0.01581 µM): 0.524
relative viability (LCLC-103H; first compound 0.05 µM): 0.513
relative viability (LCLC-103H; first compound 0.1581 µM): 0.433
relative viability (LCLC-103H; first compound 0.5 µM): 0.469
relative viability (NCI-H650; first compound 0.005 µM): 0.344
relative viability (NCI-H650; first compound 0.01581 µM): 0.509
relative viability (NCI-H650; first compound 0.05 µM): 0.447
relative viability (NCI-H650; first compound 0.1581 µM): 0.368
relative viability (NCI-H650; first compound 0.5 µM): 0.387
relative viability (NCI-H2023; first compound 0.005 µM): 0.515
relative viability (NCI-H2023; first compound 0.01581 µM): 0.577
relative viability (NCI-H2023; first compound 0.05 µM): 0.55
relative viability (NCI-H2023; first compound 0.1581 µM): 0.561
relative viability (NCI-H2023; first compound 0.5 µM): 0.523
relative viability (NCI-H1793; first compound 0.005 µM): 0.351
relative viability (NCI-H1793; first compound 0.01581 µM): 0.355
relative viability (NCI-H1793; first compound 0.05 µM): 0.388
relative viability (NCI-H1793; first compound 0.1581 µM): 0.204
relative viability (NCI-H1793; first compound 0.5 µM): 0.428
relative viability (NCI-H838; first compound 0.005 µM): 0.212
relative viability (NCI-H838; first compound 0.01581 µM): 0.31
relative viability (NCI-H838; first compound 0.05 µM): 0.292
relative viability (NCI-H838; first compound 0.1581 µM): 0.307
relative viability (NCI-H838; first compound 0.5 µM): 0.295
relative viability (SK-MES-1; first compound 0.005 µM): 0.288
relative viability (SK-MES-1; first compound 0.01581 µM): 0.404
relative viability (SK-MES-1; first compound 0.05 µM): 0.442
relative viability (SK-MES-1; first compound 0.1581 µM): 0.332
relative viability (SK-MES-1; first compound 0.5 µM): 0.416
relative viability (EPLC-272H; first compound 0.005 µM): 0.378
relative viability (EPLC-272H; first compound 0.01581 µM): 0.375
relative viability (EPLC-272H; first compound 0.05 µM): 0.447
relative viability (EPLC-272H; first compound 0.1581 µM): 0.263
relative viability (EPLC-272H; first compound 0.5 µM): 0.413
relative viability (EMC-BAC-2; first compound 0.005 µM): 0.313
relative viability (EMC-BAC-2; first compound 0.01581 µM): 0.314
relative viability (EMC-BAC-2; first compound 0.05 µM): 0.313
relative viability (EMC-BAC-2; first compound 0.1581 µM): 0.273
relative viability (EMC-BAC-2; first compound 0.5 µM): 0.237
relative viability (HCC-827; first compound 0.005 µM): 0.288
relative viability (HCC-827; first compound 0.01581 µM): 0.36
relative viability (HCC-827; first compound 0.05 µM): 0.317
relative viability (HCC-827; first compound 0.1581 µM): 0.338
relative viability (HCC-827; first compound 0.5 µM): 0.231
relative viability (NCI-H1395; first compound 0.005 µM): 0.376
relative viability (NCI-H1395; first compound 0.01581 µM): 0.407
relative viability (NCI-H1395; first compound 0.05 µM): 0.404
relative viability (NCI-H1395; first compound 0.1581 µM): 0.386
relative viability (NCI-H1395; first compound 0.5 µM): 0.371
relative viability (NCI-H1563; first compound 0.005 µM): 0.455
relative viability (NCI-H1563; first compound 0.01581 µM): 0.463
relative viability (NCI-H1563; first compound 0.05 µM): 0.466
relative viability (NCI-H1563; first compound 0.1581 µM): 0.441
relative viability (NCI-H1563; first compound 0.5 µM): 0.488
relative viability (H3255; first compound 0.005 µM): 0.316
relative viability (H3255; first compound 0.01581 µM): 0.432
relative viability (H3255; first compound 0.05 µM): 0.347
relative viability (H3255; first compound 0.1581 µM): 0.345
relative viability (H3255; first compound 0.5 µM): 0.326
relative viability (COR-L23; first compound 0.005 µM): 0.484
relative viability (COR-L23; first compound 0.01581 µM): 0.515
relative viability (COR-L23; first compound 0.05 µM): 0.462
relative viability (COR-L23; first compound 0.1581 µM): 0.485
relative viability (COR-L23; first compound 0.5 µM): 0.452
relative viability (NCI-H520; first compound 0.005 µM): 0.183
relative viability (NCI-H520; first compound 0.01581 µM): 0.201
relative viability (NCI-H520; first compound 0.05 µM): 0.232
relative viability (NCI-H520; first compound 0.1581 µM): 0.175
relative viability (NCI-H520; first compound 0.5 µM): 0.182
relative viability (NCI-H1651; first compound 0.005 µM): 0.291
relative viability (NCI-H1651; first compound 0.01581 µM): 0.437
relative viability (NCI-H1651; first compound 0.05 µM): 0.457
relative viability (NCI-H1651; first compound 0.1581 µM): 0.36
relative viability (NCI-H1651; first compound 0.5 µM): 0.377
relative viability (ChaGo-K-1; first compound 0.005 µM): 0.543
relative viability (ChaGo-K-1; first compound 0.01581 µM): 0.61
relative viability (ChaGo-K-1; first compound 0.05 µM): 0.626
relative viability (ChaGo-K-1; first compound 0.1581 µM): 0.602
relative viability (ChaGo-K-1; first compound 0.5 µM): 0.581
relative viability (NCI-H2085; first compound 0.005 µM): 0.226
relative viability (NCI-H2085; first compound 0.01581 µM): 0.207
relative viability (NCI-H2085; first compound 0.05 µM): 0.233
relative viability (NCI-H2085; first compound 0.1581 µM): 0.315
relative viability (NCI-H2085; first compound 0.5 µM): 0.224
relative viability (NCI-H2087; first compound 0.005 µM): 0.6
relative viability (NCI-H2087; first compound 0.01581 µM): 0.742
relative viability (NCI-H2087; first compound 0.05 µM): 0.794
relative viability (NCI-H2087; first compound 0.1581 µM): 0.911
relative viability (NCI-H2087; first compound 0.5 µM): 0.772
relative viability (NCI-H2405; first compound 0.005 µM): 0.216
relative viability (NCI-H2405; first compound 0.01581 µM): 0.242
relative viability (NCI-H2405; first compound 0.05 µM): 0.202
relative viability (NCI-H2405; first compound 0.1581 µM): 0.266
relative viability (NCI-H2405; first compound 0.5 µM): 0.19
